In article PMC12627862, “Therapeutic targeting of endothelial calcium signaling accelerates the resolution of lung injury” (Signal Transduction and Targeted Therapy, 2025):
Read-outs that look alike come from different tables or passages of the source. Starred links: 1 amine or outer side, 2 acyl side, 3 side chain; linkers in the order of their positions; H or OH if unused. Positions of bridges follow the written chain, without caps; N, C: chain ends. Non-standard residues stand in square brackets, D forms with d. Residues, ends and D or L forms follow the SMILES beside them. ξ: configuration not given here. X2 = C[C@@](CCCCC=[*:3])(N[*:1])C(=O)[*:2]; Oic = O=C(O)[C@@H]1C[C@@H]2CCCC[C@@H]2N1; GABOB(3R) = O=C(C[C@@H](O)CN[*:1])[*:2]; d(tBuAla) = CC(C)(C)C[C@@H](N)C(=O)O; dVal(3-OH) = CC(C)(O)[C@@H](N)C(=O)O; tBuAla = CC(C)(C)C[C@H](N)C(=O)O; ξVal(3-OH) = CC(C)(O)C(N)C(=O)O; R5 = C=CCCC[C@@](C)(N)C(=O)O; X1 = O=C(CC(O)CN[*:1])[*:2]; 4Amb = NCc1ccc(C(=O)O)cc1

Columns and labels:
[1] = system: CD1 mice challenged with LD90 of LPS; assay: Endotoxin-induced septic shock (LD90 LPS): survival and lung compliance; assay type: in vivo, mouse; settings: for half maximal effective concentration (EC50) on the survival rate: LPS 30 mg/kg bw i.p. (LD90), i.v. once daily, three doses, from 20 hours after LPS, n = 10 mice per group
Procedure: To establish the effect of VT-109 on clinically translatable outcomes, we investigated its dose-dependent effect on survival rates in a murine model of septic shock (Fig. 5a, d). In experiments involving endotoxin-induced septic shock, mice were injected intraperitoneally with a lethal dose (LD) of LPS at 30 mg/kg bw, which caused 90% mortality. The treatment cohort of mice received i.v. VT-109 at doses ranging from 1 nmol/kg to 2 µmol/kg bw, which were administered once daily for a total of three doses. All the mice also received fluid resuscitation once a day for three days.
We next examined the effect of VT-109 on lung function at 250 nmol/kg bw, the dose that produced the greatest improvement in survival rates (Fig. 5a). Lung function was assessed by measuring lung compliance in mice challenged with a lethal dose of LPS (Fig. 5c). For the control, we used a non-effective dose of VT-109 at 1 nmol/kg bw, as 90% of the mice died before reaching 48 hours post-LPS treatment if left untreated. The 1 nmol/kg bw dose was not efficacious in our mortality studies but did delay death over a 48-hour period. Static lung compliance was measured at 10 cmH2O on the expiratory limb of a P‒V loop via the Salazar–Knowles equation[49].
In the survival studies, mice received i.p. corn oil at a dose of 0.35 mL two days before the challenge. CD1 mice were injected intraperitoneally with a lethal dose 90 (LD90) of LPS (Santa Cruz Biotechnology). In most experiments, this dose was 30 mg/kg bw; however, it was adjusted for each new batch of LPS in pilot studies. In the survival study, treatment with varying doses of VT-109 (1, 10, 100, 250, 500, and 2000 nmol/kg bw) was initiated 20 hours after the LPS challenge. In the lung compliance study, a non-efficacious dose (1 nmol/kg bw) of VT-109 was used as a control, while 250 nmol/kg bw of VT-109 was used for the experimental group. Both treatments were administered intravenously 20 hours after the LPS challenge. All mice received 1 mL of prewarmed saline daily for 3 days.

[2] = Stability at various storage conditions; assay type: physicochemical; settings: for amount of peptide remaining after storage: phosphate-buffered sterile saline, 8 days, LC-MS/MS
Procedure: Stability assay of peptides in various storage conditions. Peptides were dissolved and stored in phosphate-buffered sterile saline at -20, 4, 37, and 60°C for 8 days. The amount of peptide remaining after the study was analyzed by LC-MS/MS.
Supplementary Table 5. Stability of selected compounds at various storage conditions. Preliminary accelerated storage stability at various temperature conditions for the selected inhibitors was tested in phosphate-buffered sterile saline at -20 °C, 4 °C, 37 °C and 60 °C for 8 days. See also Figures 1 and 2.

[3] = system: HLMVECs; assay: Transendothelial electrical resistance (TEER) assay; assay type: cell-based, human; settings: 1 µM, 1 hour pretreatment, 50 nM α-thrombin; to the same extent as EBIN
[4] = Aggregation / solubility at 1 mM; assay type: physicochemical; settings: summary calls it solubility at 1mM
How it was run: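 Solubility and aggregation of compounds were assessed experimentally at 1 mM. Lipophilicity was determined as octanol/water partition coefficient, logP(oct/wat).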

[5] = system: CD1 mice challenged with LPS; assay: Endotoxemia model, sublethal LPS in oil-preloaded mice; assay type: in vivo, mouse; settings: LPS 4 mg/kg i.p.
Source text: Considering the diverse etiological factors contributing to the pathogenesis of ARDS[29], we first assessed the therapeutic benefits of VT-109 in treating pulmonary vascular leakage in a murine model of endotoxemia-induced hyperinflammatory ARDS[30]. We induce a systemic inflammatory response by administering lipopolysaccharide (LPS), an endotoxin of the outer membrane of gram-negative bacteria, which elicits strong immune responses in animals, causing endothelial barrier breakdown and associated pulmonary edema, lung injury, morbidity, and mortality.
Using this model, we implemented two different i.v. treatment protocols with VT-109 (Fig. 3a, b). In cohort 1, mice received three daily doses of 1 µmol/kg bw VT-109 starting 24 hours after LPS challenge at the onset of lung injury. […] Cohort 3 mice received vehicle daily starting at 24 hours of LPS challenge. […] This inhibitory effect of VT-109 on neutrophil recruitment, a hallmark of lung inflammation and poor clinical prognosis, was consistent with our previous work[3]. Overall, our findings indicate that treating pulmonary vascular leakage reduces lung inflammation, in part, by restricting neutrophil transmigration through the endothelial barrier. […]
Evans’ blue-labeled albumin extravasation. […] The optical density of the supernatant was measured spectrophotometrically at 620 nm (Evans Blue) and 740 nm (hemoglobin correction), with the dye content normalized to the wet weight of the lungs. Corrections for hemoglobin were made as follows: Corrected absorbance (Evans blue) = Absorbance (620) - (1.426 × Absorbance (740) + 0.03). […]
Myeloperoxidase (MPO) measurements. […] MPO levels in the samples were determined using the o-dianisidine-H₂O₂ technique following enzyme extraction with hexadecyl-trimethylammonium bromide (HTAB). The absorbance change was measured at […] over a 3-minute period, and the data were expressed as ΔOD460/min/g lung tissue.

SMILES	half maximal effective concentration (EC50) on the survival rate [1]	amount of peptide remaining after storage ([2]; 4 °C)	amount of peptide remaining after storage ([2]; 37 °C)	amount of peptide remaining after storage ([2]; 60 °C)	amount of peptide remaining after storage ([2]; -20 °C)	storage stability ([2]; various storage and temperature conditions)	α-thrombin-induced changes in TEER [3]	Aggregation at 1mM [4]	static lung compliance ([1]; LD90 LPS, 250 nmol/kg bw i.v., at 10 cmH2O, n = 3‒4)	mortality ([1]; efficacious doses, starting at 100 nmol/kg bw or higher)	EC50 on the survival rate, equivalent for humans ([1]; human equivalent of 30 nmol/kg bw)	mice that died within 48 hours post-LPS challenge ([1]; lowest dose of VT-109 (1 nmol/kg))	storage stability [2]	pulmonary edema (EBA extravasation) ([5]; cohort 1: three daily i.v. doses of 1 µmol/kg bw starting 24 hours after LPS)	pulmonary edema (EBA extravasation) ([5]; cohort 2: two daily i.v. doses of 1 µmol/kg bw starting 72 hours after LPS)	myeloperoxidase (MPO) in the lung tissue ([5]; regardless of the treatment initiation time)
CC(C)(C)C[C@@H]1NC(=O)[C@](C)(NC(=O)c2ccc(CNC(=O)[C@H](N)C(C)(C)O)cc2)CCC/C=C\CCCC[C@@](C)(C(=O)N[C@H](CC(C)(C)C)C(=O)O)NC(=O)CC(O)CNC(=O)[C@@H]2C[C@@H]3CCCC[C@@H]3N2C1=O (stereo partly drawn) [compound 108, (2R)-2-((8S,18R,21S,23aS,27aS,28aS,Z)-18-(4-(((R)-2-amino-3-hydroxy-3-methylbutanamido)methyl)benzamido)-4-hydroxy-8,18-dimethyl-21-neopentyl-1,6,19,22-tetraoxo-1,2,3,4,5,6,7,8,9,10,11,12,15,16,17,18,19,20,21,22,23a,24,25,26,27,27a,28,28a-octacosahydro-[1,4,7,12]tetraazacyclotetracosino[4,5-a]indole-8-carboxamido)-4,4-dimethylpentanoic acid] (H-[dVal(3-OH)][4Amb][R5][tBuAla][Oic][X1][X2][d(tBuAla)]-OH; staple (Z) 3-7)	308 nmol/kg bw	102%	104%	104%	104%	stable	attenuated	weak signal	–	–	–	–	–	–	–	–
CC(C)(C)C[C@@H]1NC(=O)C[C@@H](O)CNC(=O)[C@@H]2C[C@@H]3CCCC[C@@H]3N2C(=O)[C@H](CC(C)(C)C)NC(=O)c2ccc(cc2)CNC(=O)C(C(C)(C)O)NC(=O)[C@@H](Cc2ccccc2)NC1=O (stereo partly drawn) [compound 109, (1^2S,1^3aS,1^7aS,3S,10S,13R,16S,20R)-13-benzyl-20-hydroxy-10-(2-hydroxypropan-2-yl)-3,16-dineopentyl-1^2,1^3,1^3a,1^4,1^5,1^6,1^7,1^7a-octahydro-1^1H-4,8,11,14,17,22-hexaaza-1(1,2)-indola-6(1,4)-benzenacyclotricosaphane-2,5,9,12,15,18,23-heptaone.] (cyclo([4Amb][tBuAla][Oic][GABOB(3R)][tBuAla][dF][ξVal(3-OH)]))	30 nmol/kg bw	–	–	–	–	–	attenuated	weak signal	0.043 ± 0.001 ml/cm H₂O	reduced mortality	2.2 µg/kg bw	90%	stable	promptly blocked the development of pulmonary edema	accelerated the resolution of pulmonary edema	consistently lowered
